Measured values taken from patent US11987795B2, “Methods of modulating SLC7A11 pre-mRNA transcripts for diseases and conditions associated with expression of SLC7A11” (The Broad Institute, Inc., priority 2020, dated 2024).
Like-named read-outs stand apart in the source and are kept apart here.

How the values were obtained:
K562 cells = assay: Maximal respiration with sulfasalazine inhibition of the transporter; type: cell-based, human; details: FIG. S7A-E
Experimental: 1.25×10^5 K562 cells were plated on a Seahorse plate in Seahorse XF DMEM media (Agilent) containing 25 mM glucose and 4 mM glutamine (ThermoFisher Scientific). Oxygen consumption and extracellular acidification rates were simultaneously recorded by a Seahorse XFe96 Analyzer (Agilent) using the mito stress test protocol, in which cells were sequentially perturbed by […] oligomycin, 1 μM CCCP and […] antimycin (Sigma). Data were analyzed using the Seahorse Wave Desktop Software (Agilent). Data were not corrected for carbonic acid derived from respiratory CO2. For seahorse in HeLa and HAP1 cells, 5×104 and 1×10^5 cells were plated in a 96-well seahorse plate the day before the experiment (respectively). Cells were trypsinized after the experiment and recounted and the data was normalized to cell number.

[1] = biological target: T1, cystine/glutamate antiporter SLC7A11 (xCT) (Homo sapiens, UniProt Q9UPY5); assay: Glutamate secretion with sulfasalazine inhibition of the transporter; type: cell-based; details: K562 cells; FIG. S7A-E
T1 construct: endogenous in cells; host or cells: K562 (probable)
T1 sequence (Q9UPY5 1-501): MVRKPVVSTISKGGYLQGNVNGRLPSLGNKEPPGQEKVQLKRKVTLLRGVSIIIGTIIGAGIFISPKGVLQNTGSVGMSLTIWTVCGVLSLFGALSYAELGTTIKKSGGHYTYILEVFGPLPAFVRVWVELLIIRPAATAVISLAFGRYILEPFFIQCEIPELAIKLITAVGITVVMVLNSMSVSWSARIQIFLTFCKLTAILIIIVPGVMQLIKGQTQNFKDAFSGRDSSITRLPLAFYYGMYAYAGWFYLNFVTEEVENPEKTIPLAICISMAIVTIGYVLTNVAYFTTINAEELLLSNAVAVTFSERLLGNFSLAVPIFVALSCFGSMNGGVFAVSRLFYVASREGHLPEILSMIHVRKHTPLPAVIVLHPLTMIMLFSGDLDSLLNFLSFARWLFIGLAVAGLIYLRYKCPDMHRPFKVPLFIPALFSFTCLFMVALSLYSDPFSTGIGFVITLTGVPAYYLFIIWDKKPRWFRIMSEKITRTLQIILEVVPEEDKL
T1 sequence (P08195 1-529 partner): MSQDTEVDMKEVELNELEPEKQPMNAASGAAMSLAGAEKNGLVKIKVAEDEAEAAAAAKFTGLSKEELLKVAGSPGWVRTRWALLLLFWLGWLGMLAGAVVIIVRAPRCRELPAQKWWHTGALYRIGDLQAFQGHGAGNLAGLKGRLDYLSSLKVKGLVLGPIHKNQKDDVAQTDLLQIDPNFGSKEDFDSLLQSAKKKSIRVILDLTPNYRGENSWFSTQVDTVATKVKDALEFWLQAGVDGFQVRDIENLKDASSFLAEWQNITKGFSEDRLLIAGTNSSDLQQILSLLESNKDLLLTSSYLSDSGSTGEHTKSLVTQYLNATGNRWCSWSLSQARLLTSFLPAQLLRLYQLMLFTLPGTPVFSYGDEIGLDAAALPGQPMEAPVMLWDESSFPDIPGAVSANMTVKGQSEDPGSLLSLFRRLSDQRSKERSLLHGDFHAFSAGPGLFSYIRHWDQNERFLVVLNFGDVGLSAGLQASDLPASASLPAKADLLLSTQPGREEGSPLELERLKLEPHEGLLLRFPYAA
Experimental: Glutamate levels were determined using a commercially available AMPLEX kit (Life Technologies). LUC7L2WT, LUC7L2Rescue (LUC7L2KO cells were a LUC7L2 cDNA was stably expressed), LUC7L2KO and ASO treated K562 or HAP1 cells were grown for 24 h in fresh culture media and counted. Cells were then washed with PBS, the media was replaced and the cells were incubated for another 3 h. Medias were then collected and centrifuged at 2,000 g for 3 min, and glutamate concentrations were determined from the supernatant.

mdx mice = assay: Wire hang test in mdx mice; type: in vivo; details: dantrolene 10 mg/kg/day with oligo AON23 10 mg/kg/week versus AON23 10 mg/kg/week alone, p=0.022
[2] = humans, long term administration; cited from earlier work
PFKM = biological target: T2, PFKM (Homo sapiens, UniProt P08237); details: PFKM / PFK inhibition, cited from earlier work
T2 sequence (P08237 2-780 limits assumed): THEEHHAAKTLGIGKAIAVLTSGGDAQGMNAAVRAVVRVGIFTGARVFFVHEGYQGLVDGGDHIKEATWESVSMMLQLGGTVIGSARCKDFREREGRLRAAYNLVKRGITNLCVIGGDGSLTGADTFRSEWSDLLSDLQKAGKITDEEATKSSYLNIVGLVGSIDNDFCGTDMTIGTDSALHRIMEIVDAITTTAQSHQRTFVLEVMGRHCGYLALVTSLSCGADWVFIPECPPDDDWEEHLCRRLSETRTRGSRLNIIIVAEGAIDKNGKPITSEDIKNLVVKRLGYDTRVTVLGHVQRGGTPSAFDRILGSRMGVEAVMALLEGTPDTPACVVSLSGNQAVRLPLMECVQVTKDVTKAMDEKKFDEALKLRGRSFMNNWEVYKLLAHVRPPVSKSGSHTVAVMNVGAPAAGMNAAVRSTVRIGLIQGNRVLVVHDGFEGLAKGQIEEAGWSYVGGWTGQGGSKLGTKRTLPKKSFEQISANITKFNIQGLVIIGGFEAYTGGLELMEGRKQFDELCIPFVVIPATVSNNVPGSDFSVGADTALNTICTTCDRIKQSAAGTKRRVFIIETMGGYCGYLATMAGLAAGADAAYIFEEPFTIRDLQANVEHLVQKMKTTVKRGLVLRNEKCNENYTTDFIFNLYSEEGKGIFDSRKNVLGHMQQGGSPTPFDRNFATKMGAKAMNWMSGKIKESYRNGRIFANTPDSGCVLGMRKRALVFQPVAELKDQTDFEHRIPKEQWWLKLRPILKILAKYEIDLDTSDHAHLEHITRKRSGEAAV

O=C(O)c1cc(/N=N/c2ccc(S(=O)(=O)Nc3ccccn3)cc2)ccc1O [sulfasalazine (SAS), sulfasalazine]
maximal respiration (K562 cells): promoted maximal respiration
glutamate secretion [1]: prevented glutamate secretion

O=C1CN(/N=C/c2ccc(-c3ccc([N+](=O)[O-])cc3)o2)C(O)=N1 [Dantrolene]
functional benefit in wire hang test (mdx mice): functional benefit
dose shown to be safe [2]: up to 8 mg/kg/day

tryptolinamide [tryptonilamide]
shift of energy metabolism from glycolysis to OXPHOS (PFKM): glycolysis to OXPHOS shift
shift of energy metabolism from glycolysis to OXPHOS (PFKM; listed as tryptolinamide): strong effect
